In patent publication US11312723B2, “Pyranopyrazole and pyrazolopyridine immunomodulators for treatment of autoimmune diseases” (The Rockefeller University, priority 2017, dated 2022):

How the values were obtained:
Human FXIIa = Human FXIIa (Homo sapiens (Human), UniProt P00748); assay: Factor XIIa (FXIIa) inhibitory activity, chromogenic substrate (Pefachrome XIIa) cleavage; format: biochemical; details: 10 min pre-incubation, Pefachrome XIIa 400 μM
Human alpha-thrombin = Human alpha-thrombin (Homo sapiens (Human), UniProt P00734); assay: Thrombin counterscreen for selectivity, fluorogenic substrate cleavage; format: biochemical; details: 10 min pre-incubation, Boc-Val-Pro-Arg-AMC 20 μM
Experimental: Counterscreens for Selectivity:
Thrombin. In a 96-well white opaque plate, 80 μl of assay buffer was added to each well. Test compounds were added, and serially diluted as above, to generate a concentration range of approximately 1-100 μM. Human alpha-thrombin (Enzyme Research Labs) was diluted in assay buffer to a final concentration of 12.5 nM. 80 μl of this enzyme solution was added to the assay wells. The enzyme/compound mixtures were incubated for 10 minutes at room temperature. Fluorogenic substrate (Boc-Val-Pro-Arg-7-amido-4-methylcoumarin; Sigma) was added to assay wells at a final concentration of 20 μM. The assay plate was spun for 1 minute at 1500 g and then read at 37° C. in a SpectraMax M2 plate reader (λex=380 nm and λem=460 nm). Activity was quantified as the rate of change in fluorescence, which corresponds to the rate of substrate cleavage. IC50 values were determined as the concentration of inhibitor that produced 50% of the rate of change of control wells without any inhibitor. For compounds with activity <1 μM, the assay was repeated with a lower concentration range, typically from 10-1000 nM.

Human FXIIa, sequence (P00748 373-615): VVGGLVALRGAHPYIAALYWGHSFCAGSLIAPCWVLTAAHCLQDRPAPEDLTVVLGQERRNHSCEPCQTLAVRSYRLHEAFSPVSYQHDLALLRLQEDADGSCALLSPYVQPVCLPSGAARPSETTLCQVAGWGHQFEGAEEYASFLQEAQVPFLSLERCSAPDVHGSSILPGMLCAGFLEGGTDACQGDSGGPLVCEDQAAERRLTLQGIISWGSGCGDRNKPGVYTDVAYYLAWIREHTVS
Human FXIIa, sequence (P00748 20-372 partner): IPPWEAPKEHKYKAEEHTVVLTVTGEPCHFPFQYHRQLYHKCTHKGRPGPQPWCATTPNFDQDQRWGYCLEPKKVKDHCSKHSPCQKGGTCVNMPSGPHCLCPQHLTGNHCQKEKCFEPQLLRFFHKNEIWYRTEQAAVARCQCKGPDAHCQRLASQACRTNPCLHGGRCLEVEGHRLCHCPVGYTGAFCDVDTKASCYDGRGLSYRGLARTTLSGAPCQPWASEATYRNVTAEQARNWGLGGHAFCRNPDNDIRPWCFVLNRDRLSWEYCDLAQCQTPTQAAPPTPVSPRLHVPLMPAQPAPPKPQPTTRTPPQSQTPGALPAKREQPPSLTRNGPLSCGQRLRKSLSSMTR

IC50 (Human FXIIa) [µM]	IC50 (Human alpha-thrombin) [µM]	SMILES
1.5	> 50	CCN1CCc2c(N)nn(C(=O)C3CCNc4ccccc43)c2C1 (stereo not shown) [Example 21, (3-amino-6-ethyl-4,5,6,7-tetrahydropyrazolo[3,4-c]pyridin-1-yl)(1,2,3,4-tetrahydroquinolin-4-yl)methanone]
0.1	20	COc1cccc2c1NCCC2C(=O)n1nc2c(c1N)CCN(S(C)(=O)=O)C2 (stereo not shown) [Example 61, (3-amino-6-(methylsulfonyl)-4,5,6,7-tetrahydropyrazolo[3,4-c]pyridin-2-yl)(8-methoxy-1,2,3,4-tetrahydroquinolin-4-yl)methanone]
> 70	> 70	CNS(=O)(=O)N1CCc2c(N)nn(C(=O)C3CCNc4ccccc43)c2C1 (stereo not shown) [Example 112, 3-amino-N-methyl-1-(1,2,3,4-tetrahydro-quinoline-4-carbonyl)-4,5-dihydro-1H-pyrazolo[3,4-c]pyridine-6(7H)-sulfonamide]
0.16	70	Nc1c2c(nn1C(=O)C1CCNc3ccc(F)cc31)COCC2 (stereo not shown) [Example 194, (3-amino-4,5-dihydropyrano[3,4-c]pyrazol-2(7H)-yl)(6-fluoro-1,2,3,4-tetrahydro-quinolin-4-yl)methanone]
50	70	Nc1nn(C(=O)C2CCNc3ccccc32)c2c1CCN(S(=O)(=O)c1ccccc1)C2 (stereo not shown) [Example 106, (3-amino-6-(phenylsulfonyl)-4,5,6,7-tetrahydro-pyrazolo[3,4-c]pyridin-1-yl)(1,2,3,4-tetrahydro-quinolin-4-yl)methanone]
0.02	15	Cc1cc(F)cc2c1NCCC2C(=O)n1nc2c(c1N)CCN(S(C)(=O)=O)C2 (stereo not shown) [Example 51, (3-amino-6-(methylsulfonyl)-4,5,6,7-tetrahydropyrazolo[3,4-c]pyridin-2-yl)(6-fluoro-8-methyl-1,2,3,4-tetrahydroquinolin-4-yl)methanone]
0.25	100	CCS(=O)(=O)N1CCc2c(nn(C(=O)C3CCNc4ccccc43)c2N)C1 (stereo not shown) [Example 125, (3-amino-6-(ethylsulfonyl)-4,5,6,7-tetrahydro-pyrazolo[3,4-c]pyridin-2-yl)(1,2,3,4-tetrahydro-quinolin-4-yl)methanone]
0.07	> 90	Nc1c2c(nn1C(=O)[C@H]1CCNc3ccc(F)cc31)CNCC2 (single isomer, unassigned) [Example 146, (S*)-(3-amino-4,5,6,7-tetrahydro-pyrazolo[3,4-c]pyridin-2-yl)(6-fluoro-1,2,3,4-tetrahydro-quinolin-4-yl)methanone]
0.01	> 90	CCN1CCc2c(nn(C(=O)[C@H]3CCNc4c(C)cc(F)cc43)c2N)C1 (single isomer, unassigned) [Example 170, (S*)-(3-amino-6-ethyl-4,5,6,7-tetrahydro-pyrazolo[3,4-c]pyridin-2-yl)(6-fluoro-8-methyl-1,2,3,4-tetrahydro-quinolin-4-yl)methanone]
2.2	45	CC(C)c1ccc2c(c1)C(C(=O)n1nc3c(c1N)CCN(S(C)(=O)=O)C3)CCN2 (stereo not shown) [Example 45, (3-amino-6-(methylsulfonyl)-4,5,6,7-tetrahydropyrazolo[3,4-c]pyridin-2-yl)(6-isopropyl-1,2,3,4-tetrahydroquinolin-4-yl)methanone]
0.6	> 100	Nc1c2c(nn1C(=O)C1CCNc3ccccc31)CNCC2 (stereo not shown) [Example 118, (3-amino-4,5,6,7-tetrahydro-pyrazolo[3,4-c]pyridin-2-yl)(1,2,3,4-tetrahydro-quinolin-4-yl)methanone]
1.8	> 40	CC(=O)N1CCc2c(nn(C(=O)C3CCNc4ccccc43)c2N)C1 (stereo not shown) [Example 107, 1-(3-amino-2-(1,2,3,4-tetrahydro-quinoline-4-carbonyl)-4,5-dihydro-2H-pyrazolo[3,4-c]pyridin-6(7H)-yl)ethanone]
28	> 65	CC(C)S(=O)(=O)N1CCc2c(N)nn(C(=O)C3CCNc4ccccc43)c2C1 (stereo not shown) [Example 128, (3-amino-6-(isopropyl-sulfonyl)-4,5,6,7-tetrahydro-pyrazolo[3,4-c]pyridin-1-yl)(1,2,3,4-tetrahydro-quinolin-4-yl)methanone]
0.05	64	CCCN1CCc2c(nn(C(=O)C3CCNc4ccc(F)cc43)c2N)C1 (stereo not shown) [Example 149, (3-amino-6-propyl-4,5,6,7-tetrahydro-pyrazolo[3,4-c]pyridin-2-yl)(6-fluoro-1,2,3,4-tetrahydro-quinolin-4-yl)methanone]
30	–	COC(=O)N1CCc2c(N)nn(C(=O)C3CCNc4ccccc43)c2C1 (stereo not shown) [Example 115, methyl 3-amino-1-(1,2,3,4-tetrahydro-quinoline-4-carbonyl)-4,5-dihydro-1H-pyrazolo[3,4-c]pyridine-6(7H)-carboxylate]
0.04	–	Cc1cccc2c1NCC[C@@H]2C(=O)n1nc2c(c1N)CCN(S(=O)(=O)C1CCC1)C2 (single isomer, unassigned) [Example 182, (S*)-(3-amino-6-(cyclobutyl-sulfonyl)-4,5,6,7-tetrahydro-pyrazolo[3,4-c]pyridin-2-yl)(8-methyl-1,2,3,4-tetrahydro-quinolin-4-yl)methanone]
0.07	–	Nc1c2c(nn1C(=O)C1CCNc3c(Cl)cccc31)CNCC2 (single isomer, unassigned) [Example 72, (S*)-(3-amino-4,5,6,7-tetrahydropyrazolo[3,4-c]pyridin-2-yl)(8-chloro-1,2,3,4-tetrahydroquinolin-4-yl)methanone]
80	–	COC(=O)N1CCc2c(c(N)nn2C(=O)C2CCNc3ccccc32)C1 (stereo not shown) [Example 88, methyl 3-amino-1-(1,2,3,4-tetrahydro-quinoline-4-carbonyl)-6,7-dihydro-1H-pyrazolo[4,3-c]pyridine-5(4H)-carboxylate]
50	–	CCN1CCc2c(N)nn(C(=O)C3CCNc4c(C)cccc43)c2C1 (stereo not shown) [Example 175, (3-amino-6-ethyl-4,5,6,7-tetrahydro-pyrazolo[3,4-c]pyridin-1-yl)(8-methyl-1,2,3,4-tetrahydro-quinolin-4-yl)methanone]
16	–	Nc1nn(C(=O)C2CCNc3ccc(F)cc32)c2c1CCN(S(=O)(=O)C(F)F)C2 (stereo not shown) [Example 160, (3-amino-6-(difluoromethyl-sulfonyl)-4,5,6,7-tetrahydro-pyrazolo[3,4-c]pyridin-1-yl)(6-fluoro-1,2,3,4-tetrahydro-quinolin-4-yl)methanone]
> 80	–	CC(C)c1ccc2c(c1)C(C(=O)n1nc(N)c3c1CN(S(C)(=O)=O)CC3)CCN2 (stereo not shown) [Example 46, (3-amino-6-(methylsulfonyl)-4,5,6,7-tetrahydropyrazolo[3,4-c]pyridin-1-yl)(6-isopropyl-1,2,3,4-tetrahydroquinolin-4-yl)methanone]
32	–	Cc1cc(F)cc2c1NCCC2C(=O)n1nc(N)c2c1CN(S(C)(=O)=O)CC2 (stereo not shown) [Example 52, (3-amino-6-(methylsulfonyl)-4,5,6,7-tetrahydropyrazolo[3,4-c]pyridin-1-yl)(6-fluoro-8-methyl-1,2,3,4-tetrahydroquinolin-4-yl)methanone]
40	–	Nc1c2c(nn1C(=O)[C@@H]1CCNc3ccc(F)cc31)COCC2 (single isomer, unassigned) [Example 197, (R*)-(3-amino-4,5-dihydropyrano[3,4-c]pyrazol-2(7H)-yl)(6-fluoro-1,2,3,4-tetrahydro-quinolin-4-yl)methanone]
